Drawing on US20240294495A1, “COMPOUNDS THAT MEDIATE PROTEIN DEGRADATION AND METHODS OF USE THEREOF” (Monte Rosa Therapeutics, Inc., priority 2021, published 2024), this text covers IC50 and DC50 for eleven compounds.

A value given as a limit tells only on which side of the number the result lay.

Assay [1] concerns the target CRBN-DDB1 (Homo sapiens, UniProt Q96SW2). Kind of assay: Compound binding to CRBN by HTRF assay. The conditions noted are these: CRBN-DDB1 2.5 nM, Cy5-Thalidomide 100 nM probe, 30 min incubation; read-out: HTRF Class (Cereblon binding, HTRF IC50). As to the method:
Compound activity was monitored in a Homogenous Time-Resolved Fluorescence (HTRF) assay using 1-[5-({2-[2-(2-{[2-(2,6-dioxopiperidin-3-yl)-1,3-dioxo-2,3-dihydro-1H-isoindol-4-yl]oxy}acetamido)ethoxy]ethyl}carbamoyl)pentyl]-3,3-dimethyl-2-[(1E,3E)-5-[(2E)-1,3,3-trimethyl-5-sulfo-2,3-dihydro-1H-indol-2-ylidene]penta-1,3-dien-1-yl]-3H-indol-1-ium-5-sulfonate as a fluorescent probe. Biochemical assays were conducted in Greiner white 384 well HiBase plates (Cat. No 784075-25) in 10 μL total volume. A one pot detection solution of CRBN-DDB1 (2.5 nM), Anti-His Terbium Cryptate Gold (1×, PerkinElmer Cat. #: 61HI2TLB), and Cy5-Thalidomide (100 nM, Tenova Cat.: T52461) was prepared in 20 mM HEPES, 20 mM NaCl, 0.2 mM TCEP, 0.2 mM EDTA, and 0.005% Tween20 was dispensed to each assay plate. Compounds were stored in dry, ambient temperatures at 10 mM. A 10-point, 1:3 dilution series was prepared from 10 mM stock concentrations in Echo-compatible LDV plates. 10 nL of each compound dilution series was dispensed into assays wells using an Echo 650 (Labcyte inc. USA). 10 nL of 10 mM Lenalidomide was transferred into the active-control wells for the assay and 10 nL of DMSO was transferred into the neutral-control wells. The assay was then allowed to incubate for 30 min at ambient temperature after transferring compound. Plate measurements were taken on a Pherastar FSX (BMG Labtech, Germany) using the HTRF Red filter (Ex. 337 nm, em1: 620 nm, em2: 665 nm) (Flashes: 50, Integration time: 60-400 us, Z-height: 10 mm, Ratio-multiplier: 10,000). The HTRF signal was then subsequently normalized to the neutral and active controls. Analysis and IC50 values were derived using KNIME analytics (KNIME Zurich) transformation and fitting within Collaborative Drug Discovery (Collaborative Drug Discovery USA). Ki was derived from the geometric mean of the IC50 values using the Cheng-Prustoff transformation.
(§1) In Table 2, each compound is assigned a class (HTRF class) indicating the ability for Cereblon binding by means of their HTRF IC50 values according to Example 3: A, B or C. According to the code, A represents an IC50 value of <100 nM, B represents an IC50 value>100 nM and <1000 nM, C represents an IC50 value>1000 nM. IF Class assigns each compound a code indicating the ability for GSPT1 degradation: A, B or C. According to the code, A represents a DC50 value of <30 nM, B represents a DC50 value>30 nM and <300 nM and C represents a DC50 value of >300 nM.
(TR-FRET usually uses a lanthanide donor and a delayed reading to cut background.)

The target of assay [2] is T1, GSPT1 (Homo sapiens, UniProt P15170+Q96SW2).
T1 construct: CAL-51 cells were purchased from DSMZ (cat. Number ACC302); endogenous in cells; host or cells: CAL-51 (DSMZ ACC302)
T1 sequence (P15170 whole entry): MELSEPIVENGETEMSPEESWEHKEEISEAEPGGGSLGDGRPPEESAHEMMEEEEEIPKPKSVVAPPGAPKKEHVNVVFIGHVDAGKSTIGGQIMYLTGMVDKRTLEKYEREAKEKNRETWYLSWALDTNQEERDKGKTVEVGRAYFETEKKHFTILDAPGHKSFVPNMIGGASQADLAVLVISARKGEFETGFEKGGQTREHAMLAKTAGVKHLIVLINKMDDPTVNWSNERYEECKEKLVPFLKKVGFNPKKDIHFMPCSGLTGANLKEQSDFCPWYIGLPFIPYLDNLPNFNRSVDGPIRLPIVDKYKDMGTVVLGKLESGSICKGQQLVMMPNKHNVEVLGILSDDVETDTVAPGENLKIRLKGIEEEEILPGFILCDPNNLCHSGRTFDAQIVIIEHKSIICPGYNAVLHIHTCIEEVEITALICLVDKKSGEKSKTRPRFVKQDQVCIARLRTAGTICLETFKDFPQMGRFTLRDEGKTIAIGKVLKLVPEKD
T1 sequence (Q96SW2 whole entry): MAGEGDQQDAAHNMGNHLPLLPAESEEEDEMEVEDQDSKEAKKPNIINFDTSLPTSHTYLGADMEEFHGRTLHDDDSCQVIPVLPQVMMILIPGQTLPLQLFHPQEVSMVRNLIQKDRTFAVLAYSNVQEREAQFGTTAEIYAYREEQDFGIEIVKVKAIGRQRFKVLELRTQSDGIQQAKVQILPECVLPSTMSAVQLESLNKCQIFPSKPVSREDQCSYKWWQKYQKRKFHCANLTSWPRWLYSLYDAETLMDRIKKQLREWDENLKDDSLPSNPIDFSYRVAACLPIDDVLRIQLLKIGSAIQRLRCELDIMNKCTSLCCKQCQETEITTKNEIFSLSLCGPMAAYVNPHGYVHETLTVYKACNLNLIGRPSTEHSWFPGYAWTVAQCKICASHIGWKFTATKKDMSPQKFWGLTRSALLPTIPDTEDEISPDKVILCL
T1 sequence (Q16531 2-1140 partner limits assumed): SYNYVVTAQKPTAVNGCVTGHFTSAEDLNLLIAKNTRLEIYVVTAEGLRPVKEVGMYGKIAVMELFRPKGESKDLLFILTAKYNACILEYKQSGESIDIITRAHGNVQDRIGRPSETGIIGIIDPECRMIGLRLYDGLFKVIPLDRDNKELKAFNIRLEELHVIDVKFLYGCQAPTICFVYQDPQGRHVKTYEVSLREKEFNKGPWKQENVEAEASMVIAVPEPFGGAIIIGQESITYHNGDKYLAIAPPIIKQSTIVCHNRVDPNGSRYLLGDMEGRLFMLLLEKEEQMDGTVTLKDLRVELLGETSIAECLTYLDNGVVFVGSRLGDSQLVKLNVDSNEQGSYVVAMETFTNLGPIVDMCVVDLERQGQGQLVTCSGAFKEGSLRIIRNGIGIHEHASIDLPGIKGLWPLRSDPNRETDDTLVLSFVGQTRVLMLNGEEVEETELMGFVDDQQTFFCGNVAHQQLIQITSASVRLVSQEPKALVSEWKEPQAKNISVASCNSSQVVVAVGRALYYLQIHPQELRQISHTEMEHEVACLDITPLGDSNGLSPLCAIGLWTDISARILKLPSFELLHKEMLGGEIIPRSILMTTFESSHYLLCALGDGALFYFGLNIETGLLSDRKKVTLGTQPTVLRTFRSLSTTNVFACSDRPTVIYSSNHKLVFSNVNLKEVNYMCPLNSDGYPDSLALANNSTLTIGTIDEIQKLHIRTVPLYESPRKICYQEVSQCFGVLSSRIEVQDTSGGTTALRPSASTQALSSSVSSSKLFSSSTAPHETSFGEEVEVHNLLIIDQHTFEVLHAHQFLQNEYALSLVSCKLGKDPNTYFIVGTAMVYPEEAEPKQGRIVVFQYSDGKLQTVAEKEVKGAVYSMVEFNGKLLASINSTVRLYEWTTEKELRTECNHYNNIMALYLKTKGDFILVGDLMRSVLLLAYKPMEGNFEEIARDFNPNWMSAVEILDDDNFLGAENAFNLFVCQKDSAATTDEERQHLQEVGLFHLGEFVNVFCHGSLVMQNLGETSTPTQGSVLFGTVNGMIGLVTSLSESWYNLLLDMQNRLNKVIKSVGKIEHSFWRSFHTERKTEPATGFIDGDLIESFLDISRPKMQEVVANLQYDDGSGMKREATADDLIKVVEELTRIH
Kind of assay: Immunofluorescence assay for GSPT1 degradation in CAL-51 cells. The conditions noted are these: 6 h treatment, read-out: IF Class (GSPT1 degradation, DC50). The class given is cell-based. As to the method: The representative compounds were tested in an immunofluorescence assay for their activity to degrade GSPT1. CAL-51 cells were purchased from DSMZ (cat. Number ACC302), sub-cultured in 90% Dulbecco's MEM (4.5 g/L glucose, Gibco 11965)+10% heat inactivated FBS (BioConcept, 2-01F136I) and incubated at 37° C., 5% CO2. For the assay imaging microtiter plate Cell Carrier 96 Ultra (Perkin Elmer 6055302) were pre-coated with Fibronectin (Sigma F085, 30 μl at 0.2 μg/mL) in PBS (100 μL, Gibco 14190) for 45 min at room temperature, rinsed with PBS and CAL-51 cells (30K cells/well) were plated and let to adhere overnight. Cells were treated with compounds typically using a serial dilution ranging from 30 μM to 0.1 nM for 6 h. Compounds were stored at 10 mM DMSO stocks. Vehicle (DMSO), positive (CC-885, 10 μM) and rescue controls (positive control plus 0.2 μM bortezomib) were also included at this stage. Cells were subsequently rinsed with PBS and fixed in 10% Formalin solution (50 μl, Sigma HT5011)) for 20 min at room temperature. Following three consecutive PBS washes (100 μL), cells were permeabilized in 0.1% Triton X-100 in PBS (Sigma 93443, 50 μl) for 15 min at room temperature. Following three further PBS washes, 50 μl blocking buffer (1% BSA, Sigma A4503, in PBS) was added for 45 min for signal-to noise reduction. Primary antibody (human GSPT1, Sigma HPA052488) was diluted in blocking buffer (dil.1/300, 35 μL/well) and incubated with the cells overnight at 4° C. After three PBS washes, Alexa-fluor 488 coupled secondary antibodies (Invitrogen, A32731, dil.1/1000), Alexa-fluor 647-Phalloidin (Invitrogen, A22287, dil.1/200) and DAPI (Thermo, #62248, dil.1/1000) were diluted in blocking buffer and incubated with the samples for 2 h at room temperature. After three final PBS washes, samples were conserved in 100 μL PBS in the dark, until measurement. Image acquisition was performed on the Operetta High-Content Imager (Perkin-Elmer). Fluorescence intensity of […] (GSPT1), Alexa-Fluor 647 (Actin) and DAPI (Nucleus) were measured. For the determination of GSPT1 DC50 values, a custom algorithm implemented in the PerkinElmer image analysis software Harmony-Acapella® was developed. After user-defined setting of adjustment parameters, the analysis was run identically without human intervention for all image fields. DAPI staining of the nuclei was used to determine the location of cells using standard nuclei detection modules. Segmentation artifacts were removed by threshold-based filters for area, roundness and intensity. The outline of the cells was determined analogously from the sum of the normalized, smoothed DAPI and Actin channel, starting from each nucleus. The Alexa-Fluor 488 (GSPT1) signal intensity in each cell was finally measured, in order to obtain a Mean intensity per cell. GSPT1 degradation (DC50) was calculated after normalization to controls and data import in CDD vault Database, using non-linear regression.
as §1

Sequence of CRBN-DDB1 (Q96SW2 whole entry): as the sequence (Q96SW2 whole entry) above
Sequence of CRBN-DDB1 (Q16531 whole entry partner): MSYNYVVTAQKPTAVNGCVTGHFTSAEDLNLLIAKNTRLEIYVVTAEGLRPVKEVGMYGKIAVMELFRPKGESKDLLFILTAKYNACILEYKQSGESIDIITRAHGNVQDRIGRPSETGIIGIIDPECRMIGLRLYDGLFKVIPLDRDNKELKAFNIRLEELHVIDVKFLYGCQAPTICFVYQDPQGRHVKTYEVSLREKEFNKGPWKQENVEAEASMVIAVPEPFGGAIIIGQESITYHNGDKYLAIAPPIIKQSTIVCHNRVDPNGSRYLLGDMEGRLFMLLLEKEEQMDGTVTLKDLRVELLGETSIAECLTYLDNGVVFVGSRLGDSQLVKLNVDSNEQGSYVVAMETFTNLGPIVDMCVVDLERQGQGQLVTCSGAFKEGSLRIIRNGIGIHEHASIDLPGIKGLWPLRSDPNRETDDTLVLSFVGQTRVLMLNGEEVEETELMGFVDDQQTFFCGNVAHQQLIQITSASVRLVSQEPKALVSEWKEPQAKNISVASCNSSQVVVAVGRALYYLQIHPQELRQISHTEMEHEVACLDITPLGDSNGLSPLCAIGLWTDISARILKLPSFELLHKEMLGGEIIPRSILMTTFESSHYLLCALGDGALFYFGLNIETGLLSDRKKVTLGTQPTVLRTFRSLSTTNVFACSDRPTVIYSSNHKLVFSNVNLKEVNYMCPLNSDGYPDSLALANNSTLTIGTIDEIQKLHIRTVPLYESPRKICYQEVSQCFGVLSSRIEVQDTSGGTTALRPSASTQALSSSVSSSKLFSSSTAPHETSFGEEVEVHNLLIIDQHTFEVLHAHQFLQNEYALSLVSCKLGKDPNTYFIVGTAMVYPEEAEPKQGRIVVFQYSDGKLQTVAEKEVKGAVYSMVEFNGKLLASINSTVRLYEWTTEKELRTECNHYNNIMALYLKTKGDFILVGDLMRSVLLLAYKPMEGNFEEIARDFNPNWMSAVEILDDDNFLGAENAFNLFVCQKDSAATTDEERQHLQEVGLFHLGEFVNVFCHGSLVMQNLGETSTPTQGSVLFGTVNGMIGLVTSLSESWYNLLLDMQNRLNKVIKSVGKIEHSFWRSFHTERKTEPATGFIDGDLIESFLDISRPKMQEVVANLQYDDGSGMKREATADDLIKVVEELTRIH

As a reminder, the IC50 is the midpoint of a concentration-inhibition curve. As a reminder, the DC50 is the concentration giving 50% degradation. As to `O=C1CCC(c2c(F)cc(N3CC(NC(=O)Cc4ccc5c(c4)OCC5)C3)cc2F)C(=O)N1` (stereo not shown) [Compound 24, 2-(2,3-dihydrobenzofuran-6-yl)-N-(1-(4-(2,6-dioxopiperidin-3-yl)-3,5-difluorophenyl)azetidin-3-yl)acetamide], the IC50 in assay [1] fell in the range of 0.1 to 1 µM. Besides, the DC50 in assay [2] is > 0.3 µM.

For `O=C1CCC(c2c(F)cc(N3CC(NC(=O)Cc4cc(F)cc(F)c4)C3)cc2F)C(=O)N1` (stereo not shown) [Compound 8, 2-(3,5-difluorophenyl)-N-(1-(4-(2,6-dioxopiperidin-3-yl)-3,5-difluorophenyl)azetidin-3-yl) acetamide], in assay [1], the IC50 lay within 0.1 to 1 µM. The DC50 in assay [2] is > 0.3 µM.

As for `O=C1CCC(c2c(F)cc(N3CC(NC(=O)Cc4cc(Cl)c(F)cc4F)C3)cc2F)C(=O)N1` (stereo not shown) [Compound 4, 2-(5-chloro-2,4-difluorophenyl)-N-(1-(4-(2,6-dioxopiperidin-3-yl)-3,5-difluorophenyl)azetidin-3-yl)acetamide], in assay [1], the IC50 was 0.1 to 1 µM. For the same compound, the DC50 in assay [2] is < 0.03 µM.

Regarding `C[C@@H]1CCCN1c1ccc(CC(=O)NC2CN(c3cc(F)c(C4CCC(=O)NC4=O)c(F)c3)C2)cn1` (stereo partly drawn) [Compound 19, N-(1-(4-(2,6-dioxopiperidin-3-yl)-3,5-difluorophenyl)azetidin-3-yl)-2-(6-((R)-2-methylpyrrolidin-1-yl)pyridin-3-yl)acetamide], in assay [1], the 50% inhibitory concentration (IC50) is < 0.1 µM. Besides, the 50% degradation concentration (DC50) in assay [2] is > 0.3 µM.

As for `Cc1c(Cl)cc(CC(=O)NC2CN(c3cc(F)c(C4CCC(=O)NC4=O)c(F)c3)C2)cc1CN1CCOCC1` (stereo not shown) [Compound 18, 2-(3-chloro-4-methyl-5-(morpholinomethyl)phenyl)-N-(1-(4-(2,6-dioxopiperidin-3-yl)-3,5-difluorophenyl)azetidin-3-yl)acetamide], in assay [1], the IC50 lay in the range of 0.1 to 1 µM. The DC50 in assay [2] is < 0.03 µM.

Regarding `Cc1cc(C)cc(CC(=O)NC2CN(c3cc(F)c(C4CCC(=O)NC4=O)c(F)c3)C2)c1` (stereo not shown) [Compound 29, 2-(3,5-dimethylphenyl)-N-(1-(4-(2,6-dioxopiperidin-3-yl)-3,5-difluorophenyl)azetidin-3-yl)acetamide], the IC50 in assay [1] lay within 0.1 to 1 µM. In addition, the 50% degradation concentration (DC50) in assay [2] was < 0.03 µM.

`O=C1CCC(c2c(F)cc(N3CC(NC(=O)C45CC(c6ccccc6)(C4)C5)C3)cc2F)C(=O)N1` (stereo not shown) [Compound 21, N-(1-(4-(2,6-dioxopiperidin-3-yl)-3,5-difluorophenyl)azetidin-3-yl)-3-phenylbicyclo [1.1.1]pentane-1-carboxamide]: in assay [1], the IC50 lay within 0.1 to 1 µM. Also, the DC50 in assay [2] is > 0.3 µM.

For the compound `Cc1cc(NC(=O)CC2CN(c3cc(F)c(C4CCC(=O)NC4=O)c(F)c3)C2)ccc1Cl` (stereo not shown) [Compound 3, N-(4-chloro-3-methylphenyl)-2-(1-(4-(2,6-dioxopiperidin-3-yl)-3,5-difluorophenyl)azetidin-3-yl)acetamide], the 50% inhibitory concentration (IC50) in assay [1] is 0.1 to 1 µM. For the same compound, the DC50 in assay [2] is < 0.03 µM.

Take `O=C1CCC(c2c(F)cc(N3CC(NC(=O)Cc4cc(Cl)ccc4F)C3)cc2F)C(=O)N1` (stereo not shown) [Compound 12, 2-(5-chloro-2-fluorophenyl)-N-(1-(4-(2,6-dioxopiperidin-3-yl)-3,5-difluorophenyl)azetidin-3-yl)acetamide]: the IC50 in assay [1] was < 0.1 µM. For the same compound, the DC50 in assay [2] was 0.03 to 0.3 µM.

Turning to `O=C1CCC(c2c(F)cc(N3CC(NC(=O)Cc4ncc(Cl)cc4F)C3)cc2F)C(=O)N1` (stereo not shown) [Compound 15, 2-(5-chloro-3-fluoropyridin-2-yl)-N-(1-(4-(2,6-dioxopiperidin-3-yl)-3,5-difluorophenyl)azetidin-3-yl)acetamide], in assay [1], the IC50 lay in the range of 0.1 to 1 µM. Besides, the half-maximal degradation concentration (DC50) in assay [2] was > 0.3 µM.

As to `Cc1cc(CC(=O)NC2CN(c3cc(F)c(C4CCC(=O)NC4=O)c(F)c3)C2)ccc1F` (stereo not shown) [Compound 30, N-(1-(4-(2,6-dioxopiperidin-3-yl)-3,5-difluorophenyl)azetidin-3-yl)-2-(4-fluoro-3-methylphenyl)acetamide], the IC50 in assay [1] fell in the range of 0.1 to 1 µM. For the same compound, in assay [2], the DC50 was in the range of 0.03 to 0.3 µM.
